Experimental data reported in patent US20220387457A1 (Qlaris Bio, Inc., priority 2020, published 2022).

Experiments:
[1] = Toxicity and clinical signs after escalating intravenous doses of CKLP1 in beagles; type: in vivo, beagle dog; details: both sexes, beagle, dog, in vivo
Protocol: (§1) Two beagles (one male and one female) were intravenously injected with escalating doses of CKPL1 (0.05 mg/kg, 0.5 mg/kg, 1.5 mg/kg, 3 mg/kg, and 5 mg/kg) to assess the toxicity of CKLP1. The injection was done through the cephalic vein and CKLP1 was administered in a phosphate buffered saline solution ((0.096% sodium phosphate dibasic, 0.089% sodium dihydrogen orthophosphate monohydrate, 0.83% sodium chloride) pH 6.5±0.1 in sterile water for injection USP). The dosing schedule is shown below in Table 3.
(§2) The following parameters and endpoints were evaluated: mortality, clinical observations, body and organ weights, and food consumption. Bioanalytical samples for toxicokinetic parameters (for both CKLP1 and leveromakalim) were collected after each dose level (days 1, 3, 8, 10, and 14) at predose, 1, 3, 6, 8, and 24 hours postdose. Animals were released from the study after completion of the bioanalytical sample collection schedule.

beagles = test: as above; type: in vivo, beagle dog; details: for dose with red discoloration of the skin: IV
Protocol: as §1, §2

[2] = test system: human alkaline phosphatase (ALP); test: Conversion of CKLP1 by human alkaline phosphatase, LC/MS-MS, pH 7.4; type: biochemical; details: up to 2 hours
Protocol: Conversion of CKLP1 (200 μM-5.0 mM) was examined by LC/MS-MS following incubation at pH 7.4 with either human alkaline phosphatase (ALP), acid phosphatase, or 5′-nucleotidase (2.01 nM-1.0 μM) for up to 2 hours.

[3] = test system: African green monkeys (systemic blood pressure); test: Systemic blood pressure in African green monkeys during 7-day topical CKLP1; type: in vivo, African green monkey; details: 10 mM CKLP1, 7 days
Protocol: To further validate the IOP lowering effects of CKLP1 in large animal models, one eye of five African green monkeys was treated with topical ocular administration of 10 mM CKLP1, while the contralateral eye received vehicle (PBS). Baseline IOP in control and treated eyes were 20.1±1.8 mmHg and 21.9±2.5 mmHg, respectively.
For treatment days, 10 mM CKLP1 (dissolved in PBS) was added to one eye of each monkey in a 50 μl topical ocular administration, once daily, for 7 consecutive days, while the contralateral eye received a 50 μl ocular administration of vehicle (PBS).

[4] = test system: hound dogs (systemic blood pressure); test: Systemic blood pressure in hound dogs during 61-day topical CKLP1; type: in vivo, hound dog; details: 10 mM CKLP1 topical once daily
Protocol: To evaluate the effect of IOP lowering long-term, hound dogs (n=5) were treated with 10 mM CKLP1 in one eye and vehicle (PBS) in the contralateral eye once daily for 61 consecutive days. […] On average, IOP was reduced by 18.9±1.3% (reduction of 3.0±0.5 mmHg; p<0.001) in all five hound dogs over the entire treatment period. Additionally, no significant change in systolic (baseline, 141.0±6.7; treatment, 138.9±9.5; p=0.56) or diastolic (baseline, 80.1±8.9; treatment, 78.1±5.9; p=0.76) blood pressure was observed during the treatment period (FIG. 7B). Hound dogs were also evaluated for eye redness, swelling of the eye or eyelids, unusual discharge from eye and overall food intake.
For the extended dose study, baseline IOPs were measured three times daily for 5 consecutive days. The average of the three measurements was recorded as the daily IOP and averaged over the 5 days for the final pre-treatment value. Following baseline IOP measurements, dogs (n=5) were treated with 10 mM CKLP1 in one eye, while the contralateral eye received vehicle (PBS). IOP was measured at least three times every week at times corresponding to 1, 4, and 23 hours post treatment. Blood pressure was measured three times each week at the 4 hour post treatment time point.

## CC1(C)Oc2ccc(C#N)cc2[C@@H](N2CCCC2=O)[C@@H]1OP(=O)(O)O [CKLP1]
[1]; iv, read-out: no-observed adverse effect level (NOAEL)
  NOAEL: 3 mg/kg
[1]; single escalating IV doses, read-out: maximum tolerated dose (MTD)
  MTD: 3 mg/kg
beagles; IV 5 mg/kg
  adverse clinical signs: increased heart rate, warm to touch, and/or partly closed eyes
beagles; IV CKLP1 0.5 mg/kg
  Clinical Signs: red discoloration of the skin (pinnae, gums, generalized
beagles; IV CKLP1 1.5 mg/kg
  Clinical Signs: red discoloration of the skin (pinnae, gums, generalized
beagles; IV CKLP1 3 mg/kg
  Clinical Signs: red discoloration of the skin (pinnae, gums, generalized
beagles; IV CKLP1 5 mg/kg
  Clinical Signs: red discoloration of the skin (pinnae, gums, generalized
beagles; escalating IV doses
  histological examination: no systemic toxicity
beagles; escalating IV doses 0.05-5 mg/kg
  mortality, body weight, food consumption: No mortality, change in body weight or food consumption
beagles; female dog
  dose with red discoloration of the skin: ≥ 0.5 mg/kg
beagles; following intravenous administration in dogs
  peripheral vasodilation: induces peripheral vasodilation
beagles; male dog
  dose with red discoloration of the skin: ≥ 0.05 mg/kg
[2]; CKLP1 200 μM-5.0 mM
  rate constant for catalytic conversion (kcat): 0.25 s⁻¹
[2]; CKLP1 200 μM-5.0 mM, read-out: Michaelis constant (Km)
  Km: 630 µM
[2]; human ALP
  conversion of CKLP1 to levcromakalim: converted
[3]; baseline 68.1±6.0, p=0.13
  diastolic pressure following treatment: 76.0±8.2 mmHg
[3]; baseline 118.7±12.0, p=0.6
  systolic pressure after treatment: 121.1±7.3 mmHg
[4]; baseline 80.1±8.9, p=0.76
  diastolic blood pressure during treatment: 78.1±5.9 mmHg
[4]; baseline 141.0±6.7, p=0.56
  systolic blood pressure during treatment: 138.9±9.5 mmHg
